± gives the expanded uncertainty stated by the source.
Key:
[1] = Crystal
[2] = Molar enthalpy of transition or fusion; conditions: Crystal; DSC

CN1N=N[NH+](N)C1N.O=[N+]([O-])[O-] (stereo not drawn) [1,5-diamino-4-methyl-4,5-dihydro-1H-tetrazol-1-ium nitrate]
mass density ([1]; 571.3 K, 101.33 kPa, X-ray): 1506 ± 2 kg/m3
Normal melting temperature ([1]; DTA): 121.00 ± 1 °C
Molar enthalpy of transition or fusion [2]: 5.16e-06 ± 1.7e-07 kcal/mol
